Experimental findings from US12441726B2, “Compounds and uses thereof” (Foghorn Therapeutics Inc., priority 2020, dated 2025) are described below.

BRM, sequence (P51531 whole entry): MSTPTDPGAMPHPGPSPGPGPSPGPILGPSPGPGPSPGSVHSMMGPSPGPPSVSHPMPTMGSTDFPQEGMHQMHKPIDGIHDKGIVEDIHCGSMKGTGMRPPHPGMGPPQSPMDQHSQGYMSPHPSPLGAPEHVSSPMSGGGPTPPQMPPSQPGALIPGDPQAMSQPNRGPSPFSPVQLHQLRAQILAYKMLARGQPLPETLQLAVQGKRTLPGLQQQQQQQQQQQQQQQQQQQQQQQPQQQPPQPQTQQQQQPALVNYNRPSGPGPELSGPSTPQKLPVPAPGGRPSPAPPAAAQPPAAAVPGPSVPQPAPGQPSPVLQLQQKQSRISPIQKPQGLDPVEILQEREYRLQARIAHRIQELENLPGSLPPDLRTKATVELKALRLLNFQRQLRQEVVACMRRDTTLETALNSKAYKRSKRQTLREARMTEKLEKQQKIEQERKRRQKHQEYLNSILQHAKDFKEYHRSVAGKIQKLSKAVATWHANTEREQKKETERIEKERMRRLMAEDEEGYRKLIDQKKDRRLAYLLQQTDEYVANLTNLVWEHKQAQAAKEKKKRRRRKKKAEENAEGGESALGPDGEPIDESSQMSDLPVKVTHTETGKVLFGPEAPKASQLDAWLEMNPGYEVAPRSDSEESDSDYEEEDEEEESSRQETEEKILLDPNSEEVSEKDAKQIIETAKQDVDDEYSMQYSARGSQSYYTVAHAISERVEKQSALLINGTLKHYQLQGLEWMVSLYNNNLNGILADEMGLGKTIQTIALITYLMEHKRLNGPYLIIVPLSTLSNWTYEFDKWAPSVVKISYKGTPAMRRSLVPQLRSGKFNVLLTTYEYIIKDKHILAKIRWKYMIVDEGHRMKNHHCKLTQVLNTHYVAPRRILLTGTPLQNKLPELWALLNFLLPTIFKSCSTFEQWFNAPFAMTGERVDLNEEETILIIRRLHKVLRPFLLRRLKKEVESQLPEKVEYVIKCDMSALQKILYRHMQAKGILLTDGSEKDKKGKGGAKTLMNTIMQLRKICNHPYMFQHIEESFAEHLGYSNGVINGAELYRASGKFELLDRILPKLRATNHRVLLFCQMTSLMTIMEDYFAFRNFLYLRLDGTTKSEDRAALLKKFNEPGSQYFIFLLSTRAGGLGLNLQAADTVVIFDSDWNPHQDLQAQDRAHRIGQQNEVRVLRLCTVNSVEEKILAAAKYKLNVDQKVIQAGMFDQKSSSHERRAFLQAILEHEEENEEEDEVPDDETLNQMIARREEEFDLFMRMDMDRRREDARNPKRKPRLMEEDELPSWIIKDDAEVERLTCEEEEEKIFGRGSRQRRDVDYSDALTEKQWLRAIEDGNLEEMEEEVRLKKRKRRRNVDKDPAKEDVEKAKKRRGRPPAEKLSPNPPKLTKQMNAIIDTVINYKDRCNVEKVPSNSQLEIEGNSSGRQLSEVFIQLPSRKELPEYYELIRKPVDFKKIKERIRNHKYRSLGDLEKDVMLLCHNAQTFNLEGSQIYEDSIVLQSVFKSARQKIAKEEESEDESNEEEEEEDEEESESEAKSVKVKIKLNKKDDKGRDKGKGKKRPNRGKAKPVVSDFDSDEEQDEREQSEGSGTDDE
BRG-1, sequence (P51532 whole entry): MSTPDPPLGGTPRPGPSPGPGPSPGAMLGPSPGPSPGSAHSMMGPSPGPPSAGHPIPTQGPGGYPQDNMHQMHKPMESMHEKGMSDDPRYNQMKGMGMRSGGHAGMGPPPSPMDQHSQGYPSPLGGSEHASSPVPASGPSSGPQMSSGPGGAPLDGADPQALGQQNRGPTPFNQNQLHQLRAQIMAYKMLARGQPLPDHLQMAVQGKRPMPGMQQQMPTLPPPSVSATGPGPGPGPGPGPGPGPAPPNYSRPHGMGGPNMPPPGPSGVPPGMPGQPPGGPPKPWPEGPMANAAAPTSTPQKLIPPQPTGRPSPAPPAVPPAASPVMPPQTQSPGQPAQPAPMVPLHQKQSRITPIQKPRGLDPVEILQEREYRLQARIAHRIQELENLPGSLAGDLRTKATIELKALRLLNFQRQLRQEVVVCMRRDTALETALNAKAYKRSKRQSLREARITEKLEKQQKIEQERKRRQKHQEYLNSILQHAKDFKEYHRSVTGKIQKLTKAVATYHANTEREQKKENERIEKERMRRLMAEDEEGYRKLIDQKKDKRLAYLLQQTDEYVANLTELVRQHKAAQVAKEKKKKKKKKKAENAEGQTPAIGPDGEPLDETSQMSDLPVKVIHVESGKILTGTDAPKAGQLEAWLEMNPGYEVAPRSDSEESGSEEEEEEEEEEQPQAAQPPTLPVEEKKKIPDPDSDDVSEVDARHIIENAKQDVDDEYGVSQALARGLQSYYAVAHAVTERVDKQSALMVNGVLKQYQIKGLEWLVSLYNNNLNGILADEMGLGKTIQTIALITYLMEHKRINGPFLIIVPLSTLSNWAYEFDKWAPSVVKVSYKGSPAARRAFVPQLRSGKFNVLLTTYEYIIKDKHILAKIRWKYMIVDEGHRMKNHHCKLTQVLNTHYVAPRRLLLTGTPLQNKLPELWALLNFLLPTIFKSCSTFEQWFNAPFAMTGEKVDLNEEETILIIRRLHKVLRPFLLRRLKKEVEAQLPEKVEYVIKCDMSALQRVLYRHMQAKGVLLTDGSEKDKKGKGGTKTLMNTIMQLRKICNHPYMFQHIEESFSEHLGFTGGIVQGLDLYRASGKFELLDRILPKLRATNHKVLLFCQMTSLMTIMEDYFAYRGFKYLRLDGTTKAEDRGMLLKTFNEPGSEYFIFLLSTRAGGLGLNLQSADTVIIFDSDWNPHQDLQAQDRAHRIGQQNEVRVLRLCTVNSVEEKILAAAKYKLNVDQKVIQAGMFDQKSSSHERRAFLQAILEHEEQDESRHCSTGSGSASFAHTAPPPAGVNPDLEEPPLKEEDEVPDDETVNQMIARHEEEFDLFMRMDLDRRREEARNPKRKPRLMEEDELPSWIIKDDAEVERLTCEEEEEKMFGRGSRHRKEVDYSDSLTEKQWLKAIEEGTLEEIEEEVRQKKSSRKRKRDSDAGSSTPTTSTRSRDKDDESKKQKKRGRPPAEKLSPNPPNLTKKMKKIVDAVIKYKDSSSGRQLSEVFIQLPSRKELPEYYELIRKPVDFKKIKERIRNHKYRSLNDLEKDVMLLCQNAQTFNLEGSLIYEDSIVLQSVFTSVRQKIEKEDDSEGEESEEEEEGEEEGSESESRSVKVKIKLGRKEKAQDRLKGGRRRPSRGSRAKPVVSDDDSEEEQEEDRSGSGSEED

The first assay has as its target BRG-1 (Homo sapiens, UniProt P51532). The assay can be described thus: ATPase catalytic activity assay (ADP-Glo), BRG-1.
Settings: not given
With `COc1cncc(-c2ccc3nnc(CNC(=O)c4ccc5c(c4)[C@](C)(C#N)COC5)cc3c2)n1` [Compound 349], the IC50 (usually the concentration that inhibits the measured activity by half) was 100 to 500 nM.

Compound `C[C@@]1(C#N)COCc2ccc(C(=O)NCc3cc4nc(-c5ccncc5)sc4cn3)cc21` [Compound 438] displayed an IC50 above 1000 nM.

`C[C@@]1(C#N)COCc2ccc(C(=O)NCc3cc4nc(-c5ccnc(N6CC7CC6C7)n5)ccc4cn3)cc21` [Compound 285] had an IC50 of 100 to 500 nM.

Regarding `C[C@@]1(C#N)CCNc2ccc(C(=O)NCc3cc4nc(-c5ccccc5)sc4cn3)cc21` [Compound 120], the IC50 was above 1000 nM.

Consider `C[C@@]1(C#N)COCc2ccc(C(=O)NCc3cc(N4CCC5(C4)CN(c4ccccc4)C5)ccn3)cc21` [Compound 11], for which the IC50 was above 1000 nM.

In turn, `C[C@@]1(C#N)COCc2ccc(C(=O)NCc3cc4cc(-c5ccccc5)cnc4cn3)cc21` [Compound 511] yielded an IC50 of 500 to 1000 nM.

Compound `O=C(NCc1cc(C#Cc2ccccc2)ccn1)c1cccc(C2(C(F)F)COC2)c1` [Compound 13] registered an IC50 above 1000 nM.

`C[C@@]1(C#N)COCc2ccc(C(=O)NCc3cc4nc(-c5ccn6ncc(C(F)F)c6n5)ccc4cn3)cc21` [Compound 309] had an IC50 of 100 to 500 nM.

`C[C@@]1(F)COCc2ccc(C(=O)NCc3cc4nc(-c5cccc(N6CCCC6=O)n5)ccc4nn3)cc21` [Compound 239] showed an IC50 of 100 to 500 nM.

The compound `C[C@@]1(C#N)COCc2ccc(C(=O)NCc3cc4cc(-c5cncc(N6CCC6)n5)ccc4nn3)cc21` [Compound 356] came in with an IC50 of 100 to 500 nM.

Compound `C[C@@]1(C#N)COCc2ccc(C(=O)NCc3cc4nc(C5CCOCC5)ccc4cn3)cc21` [Compound 107] displayed an IC50 above 1000 nM.

In turn, `C[C@@]1(F)COCc2ccc(C(=O)NCc3cc4nc(N5CCN(C6CC6)S5(=O)=O)ccc4cn3)cc21` [Compound 279] showed an IC50 of 500 to 1000 nM.

`COc1nn(CC(F)F)cc1-c1ccc2cnc(CNC(=O)c3ccc4c(c3)[C@](C)(C#N)COC4)cc2n1` [Compound 202]: the concentration for half-maximal inhibition (IC50) lay in the range of 500 to 1000 nM.

Compound `COc1cc(N2CCOCC2)ccc1-c1ccc2cnc(CNC(=O)c3ccc4c(c3)[C@](C)(C#N)COC4)cc2n1` [Compound 155] registered an IC50 of 500 to 1000 nM.

`C[C@@]1(C#N)COCc2ccc(C(=O)NCc3cc4nc(-c5ccn6nccc6n5)ccc4cn3)cc21` [Compound 447] returned an IC50 of 500 to 1000 nM.

With `C[C@@]1(F)COCc2ccc(C(=O)NCc3cc4nc(-c5ccnc(N6CCN(C7COC7)CC6)n5)ccc4cn3)cc21` [Compound 292], the IC50 was 100 to 500 nM.

`COc1cc(-c2ccc3cnc(CNC(=O)c4ccc5c(c4)[C@](C)(C#N)COC5)cc3n2)ccn1` [Compound 512] returned an IC50 of 500 to 1000 nM.

Staying with this assay, now noted: 1 h, read-out: BRG1 Max % Inhibition, ADP-Glo, 30 nM BRG-1, 400 μM ATP.
For the compound `COc1cncc(-c2ccc3nnc(CNC(=O)c4ccc5c(c4)[C@](C)(C#N)COC5)cc3c2)n1` [Compound 349], the Emax was 87%.

Consider `C[C@@]1(C#N)COCc2ccc(C(=O)NCc3cc4nc(-c5ccncc5)sc4cn3)cc21` [Compound 438], for which the Emax stood at 28%.

On to `C[C@@]1(C#N)COCc2ccc(C(=O)NCc3cc4nc(-c5ccnc(N6CC7CC6C7)n5)ccc4cn3)cc21` [Compound 285], for which the Emax was found to be 92%.

Regarding `C[C@@]1(C#N)CCNc2ccc(C(=O)NCc3cc4nc(-c5ccccc5)sc4cn3)cc21` [Compound 120], the Emax is 0%.

On to `C[C@@]1(C#N)COCc2ccc(C(=O)NCc3cc(N4CCC5(C4)CN(c4ccccc4)C5)ccn3)cc21` [Compound 11], for which the Emax is 26%.

With `C[C@@]1(C#N)COCc2ccc(C(=O)NCc3cc4cc(-c5ccccc5)cnc4cn3)cc21` [Compound 511], the Emax was determined as 79%.

Take `O=C(NCc1cc(C#Cc2ccccc2)ccn1)c1cccc(C2(C(F)F)COC2)c1` [Compound 13]: the Emax was determined as 44%.

With `C[C@@]1(C#N)COCc2ccc(C(=O)NCc3cc4nc(-c5ccn6ncc(C(F)F)c6n5)ccc4cn3)cc21` [Compound 309], the Emax was found to be 82%.

For the compound `C[C@@]1(F)COCc2ccc(C(=O)NCc3cc4nc(-c5cccc(N6CCCC6=O)n5)ccc4nn3)cc21` [Compound 239], the Emax came out at 93%.

`C[C@@]1(C#N)COCc2ccc(C(=O)NCc3cc4cc(-c5cncc(N6CCC6)n5)ccc4nn3)cc21` [Compound 356]: the Emax stood at 95%.

In the case of `C[C@@]1(C#N)COCc2ccc(C(=O)NCc3cc4nc(C5CCOCC5)ccc4cn3)cc21` [Compound 107], the Emax amounted to 16%.

For `C[C@@]1(F)COCc2ccc(C(=O)NCc3cc4nc(N5CCN(C6CC6)S5(=O)=O)ccc4cn3)cc21` [Compound 279], the Emax is 67%.

In the case of `COc1nn(CC(F)F)cc1-c1ccc2cnc(CNC(=O)c3ccc4c(c3)[C@](C)(C#N)COC4)cc2n1` [Compound 202], the Emax stood at 67%.

Take `COc1cc(N2CCOCC2)ccc1-c1ccc2cnc(CNC(=O)c3ccc4c(c3)[C@](C)(C#N)COC4)cc2n1` [Compound 155]: the Emax amounted to 67%.

Turning to `C[C@@]1(C#N)COCc2ccc(C(=O)NCc3cc4nc(-c5ccn6nccc6n5)ccc4cn3)cc21` [Compound 447], the Emax was 84%.

For `C[C@@]1(F)COCc2ccc(C(=O)NCc3cc4nc(-c5ccnc(N6CCN(C7COC7)CC6)n5)ccc4cn3)cc21` [Compound 292], the Emax worked out at 94%.

Take `COc1cc(-c2ccc3cnc(CNC(=O)c4ccc5c(c4)[C@](C)(C#N)COC5)cc3n2)ccn1` [Compound 512]: the Emax is 80%.

A further assay addresses BRM (Homo sapiens, UniProt P51531). The assay can be described thus: ATPase catalytic activity assay (ADP-Glo), BRM. To be noted: 30 nM BRM, 400 μM ATP. On the technique in general: ADP-Glo first removes unused ATP, then detects ADP through luciferase.
Regarding `COc1cncc(-c2ccc3nnc(CNC(=O)c4ccc5c(c4)[C@](C)(C#N)COC5)cc3c2)n1` [Compound 349], the “BRM Max % Inhibition” value was determined as 100%.

Regarding `C[C@@]1(C#N)COCc2ccc(C(=O)NCc3cc4nc(-c5ccncc5)sc4cn3)cc21` [Compound 438], the “BRM Max % Inhibition” value is 84%.

In the case of `C[C@@]1(C#N)COCc2ccc(C(=O)NCc3cc4nc(-c5ccnc(N6CC7CC6C7)n5)ccc4cn3)cc21` [Compound 285], the “BRM Max % Inhibition” value came out at 98%.

Consider `C[C@@]1(C#N)CCNc2ccc(C(=O)NCc3cc4nc(-c5ccccc5)sc4cn3)cc21` [Compound 120], for which the “BRM Max % Inhibition” value stood at 8%.

For the compound `C[C@@]1(C#N)COCc2ccc(C(=O)NCc3cc(N4CCC5(C4)CN(c4ccccc4)C5)ccn3)cc21` [Compound 11], the “BRM Max % Inhibition” value was found to be 82%.

In the case of `C[C@@]1(C#N)COCc2ccc(C(=O)NCc3cc4cc(-c5ccccc5)cnc4cn3)cc21` [Compound 511], the “BRM Max % Inhibition” value is reported as 96%.

As for `O=C(NCc1cc(C#Cc2ccccc2)ccn1)c1cccc(C2(C(F)F)COC2)c1` [Compound 13], the “BRM Max % Inhibition” value came to 84%.

On to `C[C@@]1(C#N)COCc2ccc(C(=O)NCc3cc4nc(-c5ccn6ncc(C(F)F)c6n5)ccc4cn3)cc21` [Compound 309], for which the “BRM Max % Inhibition” value is 97%.

For the compound `C[C@@]1(F)COCc2ccc(C(=O)NCc3cc4nc(-c5cccc(N6CCCC6=O)n5)ccc4nn3)cc21` [Compound 239], the “BRM Max % Inhibition” value was 101%.

In the case of `C[C@@]1(C#N)COCc2ccc(C(=O)NCc3cc4cc(-c5cncc(N6CCC6)n5)ccc4nn3)cc21` [Compound 356], the “BRM Max % Inhibition” value is 97%.

Regarding `C[C@@]1(C#N)COCc2ccc(C(=O)NCc3cc4nc(C5CCOCC5)ccc4cn3)cc21` [Compound 107], the “BRM Max % Inhibition” value is 71%.

On to `C[C@@]1(F)COCc2ccc(C(=O)NCc3cc4nc(N5CCN(C6CC6)S5(=O)=O)ccc4cn3)cc21` [Compound 279], for which the “BRM Max % Inhibition” value was 83%.

On to `COc1nn(CC(F)F)cc1-c1ccc2cnc(CNC(=O)c3ccc4c(c3)[C@](C)(C#N)COC4)cc2n1` [Compound 202], for which the “BRM Max % Inhibition” value turned out to be 94%.

For `COc1cc(N2CCOCC2)ccc1-c1ccc2cnc(CNC(=O)c3ccc4c(c3)[C@](C)(C#N)COC4)cc2n1` [Compound 155], the “BRM Max % Inhibition” value was determined as 96%.

For `C[C@@]1(C#N)COCc2ccc(C(=O)NCc3cc4nc(-c5ccn6nccc6n5)ccc4cn3)cc21` [Compound 447], the “BRM Max % Inhibition” value worked out at 95%.

Turning to `C[C@@]1(F)COCc2ccc(C(=O)NCc3cc4nc(-c5ccnc(N6CCN(C7COC7)CC6)n5)ccc4cn3)cc21` [Compound 292], the “BRM Max % Inhibition” value was found to be 99%.

On to `COc1cc(-c2ccc3cnc(CNC(=O)c4ccc5c(c4)[C@](C)(C#N)COC5)cc3n2)ccn1` [Compound 512], for which the “BRM Max % Inhibition” value is 97%.

The same assay, now with this note: BRM ATPase: IC50 (uM), 30 nM BRM, 400 μM ATP.
Regarding `COc1cncc(-c2ccc3nnc(CNC(=O)c4ccc5c(c4)[C@](C)(C#N)COC5)cc3c2)n1` [Compound 349], the IC50 is below 0.1 µM.

`C[C@@]1(C#N)COCc2ccc(C(=O)NCc3cc4nc(-c5ccncc5)sc4cn3)cc21` [Compound 438]: the IC50 lay in the range of 0.1 to 0.5 µM.

Compound `C[C@@]1(C#N)COCc2ccc(C(=O)NCc3cc4nc(-c5ccnc(N6CC7CC6C7)n5)ccc4cn3)cc21` [Compound 285] yielded an IC50 below 0.1 µM.

As for `C[C@@]1(C#N)CCNc2ccc(C(=O)NCc3cc4nc(-c5ccccc5)sc4cn3)cc21` [Compound 120], the IC50 was above 1 µM.

In the case of `C[C@@]1(C#N)COCc2ccc(C(=O)NCc3cc(N4CCC5(C4)CN(c4ccccc4)C5)ccn3)cc21` [Compound 11], the IC50 was above 1 µM.

`C[C@@]1(C#N)COCc2ccc(C(=O)NCc3cc4cc(-c5ccccc5)cnc4cn3)cc21` [Compound 511] registered an IC50 below 0.1 µM.

The compound `O=C(NCc1cc(C#Cc2ccccc2)ccn1)c1cccc(C2(C(F)F)COC2)c1` [Compound 13] gave an IC50 above 1 µM.

`C[C@@]1(C#N)COCc2ccc(C(=O)NCc3cc4nc(-c5ccn6ncc(C(F)F)c6n5)ccc4cn3)cc21` [Compound 309] came in with an IC50 below 0.1 µM.

`C[C@@]1(F)COCc2ccc(C(=O)NCc3cc4nc(-c5cccc(N6CCCC6=O)n5)ccc4nn3)cc21` [Compound 239] displayed an IC50 below 0.1 µM.

`C[C@@]1(C#N)COCc2ccc(C(=O)NCc3cc4cc(-c5cncc(N6CCC6)n5)ccc4nn3)cc21` [Compound 356] returned a half-inhibitory concentration (IC50) below 0.1 µM.

As for `C[C@@]1(C#N)COCc2ccc(C(=O)NCc3cc4nc(C5CCOCC5)ccc4cn3)cc21` [Compound 107], the half-maximal inhibitory concentration (IC50) is above 1 µM.

Take `C[C@@]1(F)COCc2ccc(C(=O)NCc3cc4nc(N5CCN(C6CC6)S5(=O)=O)ccc4cn3)cc21` [Compound 279]: the IC50 was in the range of 0.1 to 0.5 µM.

Regarding `COc1nn(CC(F)F)cc1-c1ccc2cnc(CNC(=O)c3ccc4c(c3)[C@](C)(C#N)COC4)cc2n1` [Compound 202], the IC50 is below 0.1 µM.

The compound `COc1cc(N2CCOCC2)ccc1-c1ccc2cnc(CNC(=O)c3ccc4c(c3)[C@](C)(C#N)COC4)cc2n1` [Compound 155] gave a concentration for half-maximal inhibition (IC50) of 0.1 to 0.5 µM.

The compound `C[C@@]1(C#N)COCc2ccc(C(=O)NCc3cc4nc(-c5ccn6nccc6n5)ccc4cn3)cc21` [Compound 447] showed an IC50 of 0.1 to 0.5 µM.

`C[C@@]1(F)COCc2ccc(C(=O)NCc3cc4nc(-c5ccnc(N6CCN(C7COC7)CC6)n5)ccc4cn3)cc21` [Compound 292] yielded an IC50 below 0.1 µM.

Turning to `COc1cc(-c2ccc3cnc(CNC(=O)c4ccc5c(c4)[C@](C)(C#N)COC5)cc3n2)ccn1` [Compound 512], the IC50 is below 0.1 µM.
